How the values were obtained:
[1] = system: NCI-H23; experiment: SRB growth assay, 6 days exposure, non-small cell lung cancer; type: cell-based; conditions: NCI-H23, 6 days
Procedure: (§1) Arsenic trioxide (1 mg/ml, 10 mg/ampoule, manufactured by Taylor Pharmaceuticals, Decatur, Ill.) was tested at five concentrations each at 10-fold dilutions, i.e., 10^−5, 10^−6, 10^−7, 10^−8 and 10^−9 μg/ml.
(§2) The in vitro tests were performed by incubating the test cells in the presence of the indicated concentration of arsenic trioxide under standard culture conditions for a designated period of time, which is followed by a sulforhodamine B (SRB) protein assay to estimate cell viability or growth. The cell lines are organized into subpanels according to the origin of the cell lines, e.g., leukemia, breast cancer, etc. A description of the cell lines and method of testing is described in Monk et al. (1997, Anticancer Drug Des. 12:533-41) and Weinstein et al., (1997, Science 275:343-9), which are incorporated herein in their entirety.
(§3) The measurement of an effect is expressed in Percentage Growth (PG). The measured effect of the compound on a cell line is calculated according to one or the other of the following two expressions: If (Mean ODtest−Mean ODzero)≧0. then PG=100×(Mean ODtest−Mean ODzero)/(Mean ODctrl−Mean ODzero) If (Mean ODtest−Mean ODzero)<0. then PG=100×(Mean ODtest−Mean ODzero)/(Mean ODzero where: • Mean ODzero=the average of optical density measurements of SRB-derived color just before exposure of cells to the test compounds; • Mean ODtest=the average of optical density measurements of SRB-derived color after exposure of cells to the test compound for a designated period of time; and • Mean ODctrl=the average of optical density measurements of SRB-derived color after with no exposure of cells to the test compound for a designated period of time
(§4) The first two columns describe the subpanel (e.g., leukemia) and cell line (e.g., CCRF-CEM) involved. The next two columns list the Mean ODzero and Mean ODctrl; the next five columns list the Mean ODtest for each of five different concentrations. Each concentration is expressed as the log10 (molar or μg/ml). The next five columns list the calculated PGs for each concentration. The response parameters GI50, TGI and LC50 are interpolated values representing the concentrations at which the PG is +50, 0, and −50, respectively. Sometimes these response parameters cannot be obtained by interpolation. If, for instance, all of the PGs in a given row exceed +50, then none of the three parameters can be obtained by interpolation. In such a case, the value given for each response parameter is the highest concentration tested and is preceded by a “>” sign. This practice is extended similarly to the other possible situations where a response parameter cannot be obtained by interpolation.
(§5) In the first set, the cells from 56 different cancer cell lines were exposed to five concentrations of arsenic trioxide continuously for two days prior to performing the SRB assay. In the second set, the cells from 50 different cell lines (a subset of the first 56 cell lines, plus the renal cancer cell line 786-0) were exposed continuously for six days prior to the SRB assay.

[2] = system: NCI-H322M; experiment: as above; type: cell-based
Procedure: as §1, §2, §3, §4, §5

[3] = system: HOP-62; experiment: as above; type: cell-based; conditions: HOP-62, 6 days
Procedure: as §1, §2, §3, §4, §5

[4] = system: refractory APL; conditions: 14 of 15 patients with refractory APL; intravenous 10 mg/day for 4-9 weeks; cited from earlier work
[5] = system: SK-MEL-2; experiment: SRB growth assay, 6 days exposure, melanoma; type: cell-based; conditions: SK-MEL-2, 6 days
Procedure: as §1, §2, §3, §4, §5

[6] = system: SK-MEL-5; experiment: SRB growth assay, 6 days exposure, melanoma; type: cell-based; conditions: SK-MEL-5, 6 days
Procedure: as §1, §2, §3, §4, §5

[7] = system: UACC-62; experiment: SRB growth assay, 6 days exposure, melanoma; type: cell-based; conditions: UACC-62, 6 days
Procedure: as §1, §2, §3, §4, §5

[8] = system: MALMI-3M; experiment: SRB growth assay, 6 days exposure, melanoma; type: cell-based
Procedure: as §1, §2, §3, §4, §5

[9] = system: SK-MEL-28; experiment: SRB growth assay, 6 days exposure, melanoma; type: cell-based; conditions: SK-MEL-28, 6 days
Procedure: as §1, §2, §3, §4, §5

[10] = read-out: LC50 (the source's name)

arsenic trioxide
Mean Optical Densities ([1]; Log 10 Concentration −4.9): 0.086 | Percent Growth ([1]; Log 10 Concentration −4.9): 1% | Mean Optical Densities ([1]; Log 10 Concentration −5.9): 1.303 | Percent Growth ([1]; Log 10 Concentration −5.9): 79% | Mean Optical Densities ([1]; Log 10 Concentration −6.9): 1.872 | Percent Growth ([1]; Log 10 Concentration −6.9): 116% | Mean Optical Densities ([1]; Log 10 Concentration −7.9): 1.814 | Percent Growth ([1]; Log 10 Concentration −7.9): 112% | Mean Optical Densities ([1]; Log 10 Concentration −8.9): 1.818 | Percent Growth ([1]; Log 10 Concentration −8.9): 113% | CC50 [1, 10]: > 12.6 µM | Mean Optical Densities ([2]; Log 10 Concentration −4.9): 0.054 | Percent Growth ([2]; Log 10 Concentration −4.9): 3% | Mean Optical Densities ([2]; Log 10 Concentration −5.9): 0.552 | Percent Growth ([2]; Log 10 Concentration −5.9): 77% | Mean Optical Densities ([2]; Log 10 Concentration −6.9): 0.674 | Percent Growth ([2]; Log 10 Concentration −6.9): 96% | Mean Optical Densities ([2]; Log 10 Concentration −7.9): 0.620 | Percent Growth ([2]; Log 10 Concentration −7.9): 88% | Mean Optical Densities ([2]; Log 10 Concentration −8.9): 0.680 | Percent Growth ([2]; Log 10 Concentration −8.9): 97% | CC50 [2, 10]: > 12.6 µM | Mean Optical Densities ([3]; Log 10 Concentration −4.9): 0.014 | Percent Growth ([3]; Log 10 Concentration −4.9): −77% | Mean Optical Densities ([3]; Log 10 Concentration −5.9): 0.451 | Percent Growth ([3]; Log 10 Concentration −5.9): 40% | Mean Optical Densities ([3]; Log 10 Concentration −6.9): 1.019 | Percent Growth ([3]; Log 10 Concentration −6.9): 99% | Mean Optical Densities ([3]; Log 10 Concentration −7.9): 0.997 | Percent Growth ([3]; Log 10 Concentration −7.9): 97% | Mean Optical Densities ([3]; Log 10 Concentration −8.9): 1.076 | Percent Growth ([3]; Log 10 Concentration −8.9): 105% | clinical efficacy [4]: complete morphologic remission without associated bone marrow suppression | TGI [5]: 5.63E−07 | Percent Growth ([5]; Log 10 Concentration −4.9): −100% | Mean Optical Densities ([5]; Log 10 Concentration −5.9): 0.128 | Percent Growth ([5]; Log 10 Concentration −5.9): −40% | Mean Optical Densities ([5]; Log 10 Concentration −6.9): 0.426 | Percent Growth ([5]; Log 10 Concentration −6.9): 74% | Mean Optical Densities ([5]; Log 10 Concentration −7.9): 0.462 | Percent Growth ([5]; Log 10 Concentration −7.9): 87% | Mean Optical Densities ([5]; Log 10 Concentration −8.9): 0.491 | Percent Growth ([5]; Log 10 Concentration −8.9): 97% | TGI [6]: 4.07E−06 | Mean Optical Densities ([6]; Log 10 Concentration −4.9): 0.013 | Percent Growth ([6]; Log 10 Concentration −4.9): −93% | Mean Optical Densities ([6]; Log 10 Concentration −5.9): 1.846 | Percent Growth ([6]; Log 10 Concentration −5.9): 96% | Mean Optical Densities ([6]; Log 10 Concentration −6.9): 1.929 | Percent Growth ([6]; Log 10 Concentration −6.9): 101% | Mean Optical Densities ([6]; Log 10 Concentration −7.9): 1.864 | Percent Growth ([6]; Log 10 Concentration −7.9): 97% | Mean Optical Densities ([6]; Log 10 Concentration −8.9): 1.935 | Percent Growth ([6]; Log 10 Concentration −8.9): 102% | TGI [7]: 2.27E−06 | Mean Optical Densities ([7]; Log 10 Concentration −4.9): 0.001 | Percent Growth ([7]; Log 10 Concentration −4.9): −98% | Mean Optical Densities ([7]; Log 10 Concentration −5.9): 0.539 | Percent Growth ([7]; Log 10 Concentration −5.9): 34% | Mean Optical Densities ([7]; Log 10 Concentration −6.9): 1.409 | Percent Growth ([7]; Log 10 Concentration −6.9): 92% | Mean Optical Densities ([7]; Log 10 Concentration −7.9): 1.460 | Percent Growth ([7]; Log 10 Concentration −7.9): 95% | Mean Optical Densities ([7]; Log 10 Concentration −8.9): 1.546 | Percent Growth ([7]; Log 10 Concentration −8.9): 101% | TGI [8]: 2.78E−06 | Mean Optical Densities ([8]; Log 10 Concentration −4.9): 0.005 | Percent Growth ([8]; Log 10 Concentration −4.9): −96% | Mean Optical Densities ([8]; Log 10 Concentration −5.9): 0.383 | Percent Growth ([8]; Log 10 Concentration −5.9): 50% | Mean Optical Densities ([8]; Log 10 Concentration −6.9): 0.823 | Percent Growth ([8]; Log 10 Concentration −6.9): 132% | Mean Optical Densities ([8]; Log 10 Concentration −7.9): 0.595 | Percent Growth ([8]; Log 10 Concentration −7.9): 90% | Mean Optical Densities ([8]; Log 10 Concentration −8.9): 0.702 | Percent Growth ([8]; Log 10 Concentration −8.9): 110% | TGI [9]: 1.86E−06 | Percent Growth ([9]; Log 10 Concentration −4.9): −100% | Mean Optical Densities ([9]; Log 10 Concentration −5.9): 0.488 | Percent Growth ([9]; Log 10 Concentration −5.9): 20% | Mean Optical Densities ([9]; Log 10 Concentration −6.9): 1.797 | Percent Growth ([9]; Log 10 Concentration −6.9): 88% | Mean Optical Densities ([9]; Log 10 Concentration −7.9): 1.906 | Percent Growth ([9]; Log 10 Concentration −7.9): 94% | Mean Optical Densities ([9]; Log 10 Concentration −8.9): 2.012 | Percent Growth ([9]; Log 10 Concentration −8.9): 99%
